{"source": "patent US11155668B2", "about": "“Contact-killing, QAC functionalized thermoplastic polyurethane for catheter applications” (THE UNIVERSITY OF AKRON, priority 2017, dated 2021)", "test_system": "E. coli", "test": "Live/dead fluorescence assay on blade-coated samples modified with Q8-SH", "type": "cell-based, Escherichia coli (ATCC 25922)", "settings": "for E. coli killed: at 10 min", "experimental": "For antimicrobial testing, blade-coated samples and catheter tubing of allyl-TPU were sterilized by EtO sterilization using an Anprolene benchtop sterilizer (Anderson Products, Inc., Haw River, N.C.) following the manufacturer's protocol to deliver approximately 0.5 cc·L^−1 of EtO gas over a 12 h sterilization cycle at 35% humidity and room temperature, followed by a 48 h purge under vacuum. The bacterial strains used in this study included Staphylococcus epidermidis (ATCC 12228), Staphylococcus aureus (25923), Escherichia coli (ATCC 25922), Pseudomonas aeruginosa (ATCC 27853), Enterococcus faecalis (ATCC 29212), and methicillin-resistant Staphylococcus aureus (MRSA) (ATCC BAA-41).\nA live/dead assay was performed using overnight cultures of E. coli grown in TSB and S. aureus grown in Mueller-Hinton broth (MH). The cells were washed with PBS (3×), resuspended in PBS, and diluted to obtain an OD600=0.15 (measured using a Hach DR2800 Spectrophotometer, λ=600 nm). The bacterial suspensions (1.0 mL) were stained with 2.0 μL of a dye mixture containing equal portions of 3.34 mM SYTO 9 and 20 mM propidium iodide (L7012 LIVE/DEAD™ BACLIGHT™ Bacterial Viability Kit, ThermoFisher Scientific) and allowed to incubate at room temperature in the dark for 15 min. Then, 10 μL of stained bacterial suspension was placed on a glass slide and covered with either untreated, phys. ads., or UV-treated samples modified with Q8-SH for 5 min (S. aureus) or 10 min (E. coli) before imaging. Live/dead microscopy was performed using an IX81 inverted microscope (Olympus, Center Valley, Pa.) and images were processed and quantified using ImageJ software.", "note": "Entries after “also recorded” stand apart in the source; their conditions may differ."}
{"smiles": "CCCCCCCC[N+](C)(C)CCCCCCCCOC(=O)CCS.[Cl-]", "note": "[Q8-SH]", "values": [{"measurement": "E. coli killed", "setting": "UV-treated samples", "result": 90, "unit": "%"}, {"measurement": "E. coli inoculum killed (in words)", "setting": "UV-treated samples, within 10 min, OD600=0.15", "result": "nearly all; also recorded: majority"}, {"measurement": "E. coli killed", "setting": "phys. ads. samples", "result": 5, "unit": "%"}]}
